{
  "source": "PubChem BioAssay AID785",
  "about": "(University of Pittsburgh Molecular Library Screening Center, 2007)",
  "biological_target": "Serine/threonine-protein kinase PLK1 (Homo sapiens) (UniProt P53350)",
  "sequence (P53350 whole entry, looked up)": "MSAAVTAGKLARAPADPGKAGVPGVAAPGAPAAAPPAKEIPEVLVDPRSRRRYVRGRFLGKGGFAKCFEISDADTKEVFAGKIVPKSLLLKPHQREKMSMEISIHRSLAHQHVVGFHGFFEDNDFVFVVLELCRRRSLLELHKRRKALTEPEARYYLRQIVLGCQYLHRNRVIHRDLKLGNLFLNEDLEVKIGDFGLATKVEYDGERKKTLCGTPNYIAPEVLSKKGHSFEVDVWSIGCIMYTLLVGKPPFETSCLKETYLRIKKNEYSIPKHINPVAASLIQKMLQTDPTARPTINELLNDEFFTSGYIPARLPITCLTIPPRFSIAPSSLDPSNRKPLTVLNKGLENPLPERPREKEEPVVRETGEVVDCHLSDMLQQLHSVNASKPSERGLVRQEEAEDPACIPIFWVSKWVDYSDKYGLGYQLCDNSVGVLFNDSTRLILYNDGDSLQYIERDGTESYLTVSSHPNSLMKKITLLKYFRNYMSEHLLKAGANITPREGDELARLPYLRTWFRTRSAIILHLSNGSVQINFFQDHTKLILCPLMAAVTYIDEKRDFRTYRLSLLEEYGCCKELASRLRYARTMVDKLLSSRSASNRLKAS",
  "test": "PLK1 kinase inhibitor potency, dose response, biochemical, TR-FRET, IC50 (AID 785)",
  "settings": "recombinant human Plk1, fluorescence polarization phosphopeptide binding, 3 h",
  "data": [
    {"smiles": "COC(=O)c1sc2nc[nH]c(=O)c2c1C", "values": [
      {"measurement": "IC50", "result": 1.44, "unit": "µM"}
    ]},
    {"smiles": "O=c1[nH]cnc2sc(-c3ccccc3)cc12", "values": [
      {"measurement": "IC50", "result": 6.08, "unit": "µM"}
    ]},
    {"smiles": "CC1Cc2nc(SCC(=O)Nc3nccs3)n(C)c(=O)c2S1", "note": "(centres undefined)", "values": [
      {"measurement": "IC50", "result": 9.72, "unit": "µM"}
    ]},
    {"smiles": "CCOc1c(Br)ccc2c1sc1nc[nH]c(=O)c12", "values": [
      {"measurement": "IC50", "result": 2.15, "unit": "µM"}
    ]},
    {"smiles": "COc1cccc(Nc2ncnc3nc[nH]c23)c1", "values": [
      {"measurement": "IC50", "result": 2.37, "unit": "µM"}
    ]},
    {"smiles": "Cc1cc(C(C#N)c2cccc(Cl)c2)n2ncnc2n1", "note": "(centres undefined)", "values": [
      {"measurement": "IC50", "result": 5.98, "unit": "µM"}
    ]},
    {"smiles": "O=C(CSc1n[nH]c(-c2ccc(Cl)cc2Cl)n1)Nc1ccccn1", "values": [
      {"measurement": "IC50", "result": 0.534, "unit": "µM"}
    ]},
    {"smiles": "CCOC(=O)c1c(-c2ccncc2)csc1N", "values": [
      {"measurement": "IC50", "result": 7.01, "unit": "µM"}
    ]},
    {"smiles": "O=C(Nc1cccnc1)c1cnn2cccnc12", "values": [
      {"measurement": "IC50", "result": 4.07, "unit": "µM"}
    ]},
    {"smiles": "O=c1[nH]cnc2cc(-c3ccccc3)sc12", "values": [
      {"measurement": "IC50", "result": 6.2, "unit": "µM"}
    ]},
    {"smiles": "CCOc1ccc(N2Nc3n[nH]c(N)c3N2)cc1", "values": [
      {"measurement": "IC50", "result": 3.4, "unit": "µM"}
    ]},
    {"smiles": "O=c1[nH]cnc2scc(-c3cccs3)c12", "values": [
      {"measurement": "IC50", "result": 4.24, "unit": "µM"}
    ]},
    {"smiles": "COc1ccc(N2Nc3n[nH]c(N)c3N2)cc1", "values": [
      {"measurement": "IC50", "result": 1.64, "unit": "µM"}
    ]},
    {"smiles": "NNc1ncnc2c1cnn2-c1ccccc1", "values": [
      {"measurement": "IC50", "result": 4.18, "unit": "µM"}
    ]},
    {"smiles": "Cc1[nH]nc2c1C1(CCN(Cc3ccccc3)CC1)C(C#N)=C(N)O2", "values": [
      {"measurement": "IC50", "result": 1.4, "unit": "µM"}
    ]},
    {"smiles": "COc1cc(/C=C(\\C#N)c2[nH]nc(N)c2C#N)cc(OC)c1O", "values": [
      {"measurement": "IC50", "result": 1.86, "unit": "µM"}
    ]},
    {"smiles": "CC1CCN(c2ncnc3nc[nH]c23)CC1", "values": [
      {"measurement": "IC50", "result": 3.13, "unit": "µM"}
    ]},
    {"smiles": "O=C(O)c1ccc2c(c1)[C@@H]1C=CC[C@@H]1[C@H](c1ccccn1)N2", "values": [
      {"measurement": "IC50", "result": 16.9, "unit": "µM"}
    ]},
    {"smiles": "Nc1[nH]ncc1C(=O)Nc1cccc(C(F)(F)F)c1", "values": [
      {"measurement": "IC50", "result": 0.888, "unit": "µM"}
    ]},
    {"smiles": "Nc1ncnc(Nc2cccc(C(F)(F)F)c2)n1", "values": [
      {"measurement": "IC50", "result": 0.469, "unit": "µM"}
    ]},
    {"smiles": "COc1ccccc1Nc1ncnc2nc[nH]c12", "values": [
      {"measurement": "IC50", "result": 1.01, "unit": "µM"}
    ]},
    {"smiles": "Cc1oc2ncnc(N)c2c1C", "values": [
      {"measurement": "IC50", "result": 3.75, "unit": "µM"}
    ]},
    {"smiles": "Cc1ncc([N+](=O)[O-])n1CCOC(=O)Nc1ccc(Cl)c(Cl)c1", "values": [
      {"measurement": "IC50", "result": 0.775, "unit": "µM"}
    ]},
    {"smiles": "Cc1c(C(=O)OC(C)C)sc2nc[nH]c(=O)c12", "values": [
      {"measurement": "IC50", "result": 4.01, "unit": "µM"}
    ]},
    {"smiles": "Cc1nc2c([nH]1)C1(CCN(Cc3ccccc3)CC1)C(C#N)=C(N)O2", "values": [
      {"measurement": "IC50", "result": 0.823, "unit": "µM"}
    ]},
    {"smiles": "COC(=O)c1c(-c2ccc(Br)cc2)noc1N", "values": [
      {"measurement": "IC50", "result": 7.93, "unit": "µM"}
    ]},
    {"smiles": "Cc1cccc(Nc2ncnc3nc[nH]c23)c1", "values": [
      {"measurement": "IC50", "result": 2.23, "unit": "µM"}
    ]},
    {"smiles": "N#C/C(=N\\Nc1c(Cl)cccc1Cl)C(=O)NN", "values": [
      {"measurement": "IC50", "result": 0.814, "unit": "µM"}
    ]},
    {"smiles": "c1ccc2c(-c3ccncc3)c[nH]c2c1", "values": [
      {"measurement": "IC50", "result": 4.12, "unit": "µM"}
    ]},
    {"smiles": "CCOC(=O)c1sc2nc[nH]c(=O)c2c1C", "values": [
      {"measurement": "IC50", "result": 3.09, "unit": "µM"}
    ]},
    {"smiles": "NC(=O)c1ccc(C(F)(F)F)n(Cc2cccc(Cl)c2)c1=O", "values": [
      {"measurement": "IC50", "result": 22.8, "unit": "µM"}
    ]},
    {"smiles": "Nc1nc2ccc([N+](=O)[O-])c(N)c2s1", "values": [
      {"measurement": "IC50", "result": 0.235, "unit": "µM"}
    ]},
    {"smiles": "COc1ccc(Cn2c(N)c(C(=O)NCc3ccco3)c3nc4ccccc4nc32)cc1OC", "values": [
      {"measurement": "IC50", "result": 8.82, "unit": "µM"}
    ]},
    {"smiles": "N#Cc1c(-c2ccc3c(c2)OCO3)csc1N", "values": [
      {"measurement": "IC50", "result": 10.7, "unit": "µM"}
    ]},
    {"smiles": "Nc1ncnc(Nc2ccccc2C(F)(F)F)n1", "values": [
      {"measurement": "IC50", "result": 4.84, "unit": "µM"}
    ]},
    {"smiles": "Nc1[nH]ncc1N=Nc1ccc(Cl)cc1", "values": [
      {"measurement": "IC50", "result": 2.22, "unit": "µM"}
    ]},
    {"smiles": "CCc1nc2n[nH]c(N)c2c2c1CSC(C)(C)C2", "values": [
      {"measurement": "IC50", "result": 5.1, "unit": "µM"}
    ]},
    {"smiles": "Cc1cccc(N=Nc2c(N)n[nH]c2-c2ccc(Cl)cc2)c1", "values": [
      {"measurement": "IC50", "result": 18.5, "unit": "µM"}
    ]},
    {"smiles": "C=CCNc1nc(N)c(C(=O)c2ccc3c(c2)OCO3)s1", "values": [
      {"measurement": "IC50", "result": 3.85, "unit": "µM"}
    ]}
  ]
}
